# Tests used:
# Experiment in all cases: relative viability (nuclei count vs DMSO), 5 days (fraction); higher = more cells survive
# [1] = compound: CCCS(=O)(=O)Nc1ccc(F)c(C(=O)c2c[nH]c3ncc(-c4ccc(Cl)cc4)cc23)c1F [Vemurafenib] + C[C@]1(O)C[C@@H](c2nc(-c3ccc4ccc(-c5ccccc5)nc4c3)c3c(N)nccn32)C1 [Linsitinib] (partner 1 µM)
# Outline: (§1)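 Dosing by pin tool came one day after lung cancer cell lines were seeded in 1536-well plates, using either one drug or a fixed anchor-drug dose plus five library-drug doses (not always all listed) in √10 steps. After 5 days, nuclei were counted on 4× images. Relative viability is treated-well nuclei count divided by vehicle-well nuclei count, and values are medians of duplicate plates.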
# [2] = compound: COc1cccc2cc(-c3nc([C@H]4CC[C@H](C(=O)O)CC4)n4ncnc(N)c34)[nH]c12 [OSI-027] + C[C@]1(O)C[C@@H](c2nc(-c3ccc4ccc(-c5ccccc5)nc4c3)c3c(N)nccn32)C1 [Linsitinib] (partner 1 µM)
# Outline: as §1
# [3] = compound: Cc1nc(NC(=O)N2CCC[C@H]2C(N)=O)sc1-c1ccnc(C(C)(C)C(F)(F)F)c1 [Alpelisib] + Cc1nc(Nc2ncc(C(=O)Nc3c(C)cccc3Cl)s2)cc(N2CCN(CCO)CC2)n1 [Dasatinib] (partner 0.075 µM)
# Outline: as §1
# [4] = compound: COc1cccc2cc(-c3nc([C@H]4CC[C@H](C(=O)O)CC4)n4ncnc(N)c34)[nH]c12 [OSI-027] + Nc1ncn([C@H]2C[C@H](O)[C@@H](CO)O2)c(=O)n1 [Decitabine] (partner 2 µM)
# Outline: as §1
Cell Line,relative viability ([1]; first compound 0.03162 µM),relative viability ([1]; first compound 0.1 µM),relative viability ([1]; first compound 0.3162 µM),relative viability ([1]; first compound 1 µM),relative viability ([2]; first compound 0.01 µM),relative viability ([2]; first compound 0.03162 µM),relative viability ([2]; first compound 0.1 µM),relative viability ([2]; first compound 0.3162 µM),relative viability ([2]; first compound 1 µM),relative viability ([3]; first compound 0.04 µM),relative viability ([3]; first compound 0.1265 µM),relative viability ([3]; first compound 0.4 µM),relative viability ([3]; first compound 1.265 µM),relative viability ([3]; first compound 4 µM),relative viability ([4]; first compound 0.01 µM),relative viability ([4]; first compound 0.03162 µM),relative viability ([4]; first compound 0.1 µM),relative viability ([4]; first compound 0.3162 µM),relative viability ([4]; first compound 1 µM)
IA-LM,0.537,0.53,0.603,0.554,0.31,0.383,0.41,0.263,0.131,–,–,–,–,–,–,–,–,–,–
NCI-H1650,–,–,–,–,–,–,–,–,–,0.316,0.309,0.322,0.257,0.271,0.454,0.45,0.471,0.308,0.314
NCI-H322M,0.851,–,0.964,0.885,0.805,0.778,0.787,0.589,0.868,0.225,0.223,0.257,0.253,0.273,0.66,0.658,0.694,0.662,0.542
SW 1573,0.791,0.886,0.935,0.795,0.777,0.712,0.771,0.586,0.462,0.438,0.458,0.672,0.364,0.202,0.411,0.535,0.438,0.388,0.284
HCC-827,0.878,–,0.924,0.926,0.979,1.03,0.935,0.943,0.552,0.378,0.427,0.296,0.234,0.233,0.304,0.291,0.3,0.329,0.277
LU99A,0.484,0.445,0.586,0.479,0.51,0.471,0.355,0.243,0.198,0.446,0.482,0.554,0.409,0.379,0.773,0.966,0.675,0.485,0.216
LK-2,0.409,0.525,0.811,0.417,0.523,0.184,0.396,0.289,0.138,0.327,0.287,0.257,0.185,0.186,0.207,0.251,0.231,0.234,0.142
EMC-BAC-2,0.798,0.695,0.807,0.807,0.824,0.762,0.763,0.607,0.305,0.31,0.291,0.28,0.228,0.208,0.97,0.992,0.934,0.827,0.588
NCI-H2342,–,–,–,–,–,–,–,–,–,0.327,0.313,0.306,0.269,0.272,0.793,0.687,0.68,0.662,0.603
NCI-H460,0.677,0.839,0.879,0.777,0.95,0.34,0.627,0.186,0.105,0.42,0.484,0.457,0.245,0.174,0.544,0.502,0.541,0.456,0.241
NCI-H441,0.555,0.527,0.491,0.345,0.643,0.452,0.399,0.387,0.206,0.525,0.72,0.562,0.311,0.358,0.266,0.263,0.261,0.293,0.259
NCI-H661,0.573,0.516,0.663,0.637,0.511,0.334,0.521,0.364,0.269,0.845,0.745,0.8,0.569,0.526,0.521,0.522,0.491,0.417,0.327
NCI-H727,0.265,0.281,0.415,0.394,0.239,0.344,0.281,0.229,0.264,0.424,0.326,0.476,0.313,0.272,0.808,0.778,0.849,0.774,0.761
NCI-H1651,0.869,1.09,1.02,1.09,0.938,–,0.801,0.514,0.285,0.357,0.463,0.445,0.412,0.293,0.629,0.553,0.576,0.561,0.515
NCI-H1355,0.713,0.709,0.801,0.758,0.759,0.687,0.643,0.374,0.218,0.708,0.551,0.699,0.434,0.443,0.329,0.437,0.356,0.376,0.243
NCI-H1793,0.877,–,0.893,0.897,1.04,0.875,0.612,0.225,0.188,0.299,0.379,0.525,0.356,0.351,0.457,0.493,0.436,0.329,0.259
NCI-H1666,0.853,–,0.922,0.841,0.775,0.536,0.459,0.337,0.39,0.851,0.764,0.792,0.698,0.666,0.719,0.7,0.741,0.624,0.555
NCI-H838,0.979,1.01,–,1.14,0.819,0.584,0.456,0.305,0.254,0.275,0.375,0.296,0.228,0.215,0.503,0.483,0.403,0.378,0.337

Cell Line,relative viability ([1]; first compound 0.03162 µM),relative viability ([1]; first compound 0.1 µM),relative viability ([1]; first compound 0.3162 µM),relative viability ([1]; first compound 1 µM),relative viability ([2]; first compound 0.01 µM),relative viability ([2]; first compound 0.03162 µM),relative viability ([2]; first compound 0.1 µM),relative viability ([2]; first compound 0.3162 µM),relative viability ([2]; first compound 1 µM),relative viability ([3]; first compound 0.04 µM),relative viability ([3]; first compound 0.1265 µM),relative viability ([3]; first compound 0.4 µM),relative viability ([3]; first compound 1.265 µM),relative viability ([3]; first compound 4 µM),relative viability ([4]; first compound 0.01 µM),relative viability ([4]; first compound 0.03162 µM),relative viability ([4]; first compound 0.1 µM),relative viability ([4]; first compound 0.3162 µM),relative viability ([4]; first compound 1 µM)
NCI-H1975,1,0.962,0.725,1.05,1.09,1.03,0.822,0.706,0.339,0.322,0.309,0.329,0.176,0.112,0.392,0.395,0.398,0.434,0.4
A-427,1.09,1.1,1.03,1.15,1.15,1.08,1.05,0.746,0.882,0.618,0.579,0.704,0.559,0.638,0.522,0.59,0.469,0.484,0.37
SK-LU-1,0.93,0.958,0.915,1.03,1.06,0.83,0.63,0.406,0.306,0.141,0.149,0.133,0.128,0.0997,0.594,0.631,0.663,0.483,0.406
ChaGo-K-1,–,–,–,–,–,–,–,–,–,0.546,0.592,0.547,0.487,0.452,0.518,0.526,0.497,0.522,0.45
EBC-1,0.859,0.822,0.891,1.02,0.901,0.886,0.916,0.78,0.419,–,–,–,–,–,–,–,–,–,–
Calu-6,–,0.981,0.745,0.927,0.959,0.87,0.864,0.673,0.504,–,–,–,–,–,–,–,–,–,–
SW 900,–,–,–,–,–,–,–,–,–,0.534,0.58,0.612,0.578,0.518,0.438,0.402,0.42,0.48,0.384
NCI-H1563,1.2,1.11,1.3,1.25,1.13,1.21,1.1,0.929,0.677,0.474,0.395,0.434,0.386,0.375,–,–,–,–,–
NCI-H2170,–,–,–,–,–,–,–,–,–,0.535,0.519,0.506,0.483,0.396,0.459,0.491,0.463,0.421,0.31
NCI-H522,–,–,–,–,–,–,–,–,–,0.952,0.772,0.786,0.709,0.647,0.705,0.724,0.626,0.629,0.582
CAL-12T,0.723,0.549,1.02,0.819,0.704,0.753,0.724,0.445,0.353,0.34,0.275,0.483,0.27,0.232,–,–,–,–,–
NCI-H1623,–,–,–,–,–,–,–,–,–,0.528,0.496,0.513,0.414,0.353,–,–,–,–,–
NCI-H2228,0.819,0.587,0.773,0.587,0.637,0.768,0.576,–,0.368,0.519,0.478,0.414,0.279,0.175,–,–,–,–,–
NCI-H1648,–,–,–,–,–,–,–,–,–,–,–,–,–,–,0.477,0.51,–,0.445,0.45
NCI-H1299,1.02,0.958,0.83,0.951,0.969,0.94,0.889,0.773,0.635,–,–,–,–,–,–,–,–,–,–
NCI-H1703,0.738,0.644,0.637,0.787,0.381,0.788,0.767,0.48,0.56,–,–,–,–,–,–,–,–,–,–
A549,0.584,0.444,0.515,0.567,0.582,0.479,0.372,0.263,0.0989,–,–,–,–,–,0.301,0.256,0.272,0.319,0.102
HCC-44,0.612,0.67,0.709,0.716,0.646,0.628,0.584,0.452,0.195,–,–,–,–,–,0.903,0.973,0.93,0.945,0.777

# Source: the supplement of paper PMC10307832
